This note sets out measurements from PubChem BioAssay AID1996.

In brackets after ≈: the same amount, converted by molar mass.

By solubility (kinetic) is commonly meant solubility judged after dilution from a stock solution rather than from solid.

The conditions of this data set: buffer; pH 7.4; 200.0 µM.
`COc1ccc(CCNC(=O)COC(=O)Cc2ccccc2[N+](=O)[O-])cc1` displayed a kinetic solubility above 55.9 µg/mL. The compound `Cl.Nc1ccc(-c2nc3c(ccc4ccccc43)[nH]2)cc1` had a solubility (kinetic) above 44.4 µg/mL. `Cl.N#C/C(=C\c1ccccc1)C(=O)NCCN1CCOCC1` displayed a solubility (kinetic) above 48.3 µg/mL. On to `O=C(Nc1ccccc1Cl)c1ccccc1`, for which the kinetic solubility was 19.2 µg/mL (≈ 82.9 µM). In turn, `CCn1c(=S)[nH]c2cc(C(=O)O)ccc21` showed a solubility (kinetic) above 33.3 µg/mL. For the compound `S=C(NC1CCCCC1)N1CCOCC1`, the solubility (kinetic) is 33.8 µg/mL (≈ 148 µM). For the compound `COc1ccccc1OCCNC(=O)Nc1ccc(Br)cc1`, the kinetic solubility came to 1.3 µg/mL (≈ 3.56 µM). On to `CCOc1ccc(N2C(=O)/C(=C/c3ccc(C)o3)C(=O)NC2=S)cc1`, for which the solubility (kinetic) is above 53.5 µg/mL. Compound `CN(C)/C=C/C(=O)c1cccc(C(F)(F)F)c1` displayed a kinetic solubility above 36.5 µg/mL. For the compound `NC(=O)c1ccccc1OC1CCC1`, the solubility (kinetic) is above 28.7 µg/mL.

The compound `NC(=Nc1ccc(Br)cc1)c1ccccc1` returned a solubility (kinetic) above 41.3 µg/mL.

As for `COC(=O)c1cc(S(=O)(=O)N(C)Cc2ccco2)c[nH]1`, the kinetic solubility is above 44.7 µg/mL. To `CCCNC(=S)Nc1cc2oc3ccccc3c2cc1OC` belongs 0.4 µg/mL (≈ 1.27 µM); to `COc1ccc(N2C(=O)c3ccccc3S2(=O)=O)cc1`, 1.5 µg/mL (≈ 5.18 µM). As to `C=CCNC(=O)N1CCCC(C(=O)c2cccc(OC(C)C)c2)C1` (stereo not drawn), the solubility (kinetic) was above 49.6 µg/mL.

Regarding `CC1c2cccn2CCN1S(=O)(=O)c1ccc(F)cc1` (stereo not drawn), the solubility (kinetic) is above 44.2 µg/mL. The compound `COc1ccc(C(=O)NC(=S)NCc2ccco2)cc1` gave a solubility (kinetic) of 4.6 µg/mL (≈ 15.8 µM). Take `Cc1cc(C(C)(C)C)cc(C)c1COC(=O)CN1C(=O)NC2(CCCC2)C1=O`: the solubility (kinetic) was determined as 13.3 µg/mL (≈ 34.4 µM). With `Cc1ccc(S(=O)(=O)/N=C(\N)c2ccc(Cl)cc2)cc1` the figure was above 46.3 µg/mL. With `Oc1ccc(/C=N/N2CCCCC2)c(O)c1O` the figure was above 35.4 µg/mL. In turn, `COc1ccc(CN2CCSc3sccc3C2=O)cc1` gave a solubility (kinetic) above 45.8 µg/mL. For the compound `COc1ccc(C(C)NC(=O)c2ccncc2)cc1` (stereo not drawn), the kinetic solubility came out at 36.2 µg/mL (≈ 141 µM). In the case of `O=C1OC(N2C(=O)CC[C@H]2C(=O)Nc2ccc3c(c2)OCO3)c2ccccc21` (stereo partly drawn), the kinetic solubility was above 57.1 µg/mL.

Regarding `CC(=O)NC(=S)Nc1cccc2ccc(C)nc12`, the kinetic solubility was found to be 1.1 µg/mL (≈ 4.24 µM).

Compound `CC(=O)c1c(C)oc2ccc(NS(=O)(=O)c3ccc(F)cc3C)cc12` yielded a kinetic solubility below 0.8 µg/mL. `C/C(=C\c1cccc(Cl)c1)C(=O)c1c(C)cc(C)[nH]c1=O` yielded a solubility (kinetic) above 45.3 µg/mL.

`O=c1c2c([N+](=O)[O-])cc([N+](=O)[O-])cc2nc2ccccn12` gave a kinetic solubility of 3.2 µg/mL (≈ 11.2 µM).

For `NC(=S)Nc1ccc(Cl)cc1Cl`, the solubility (kinetic) amounted to 32.9 µg/mL (≈ 149 µM). `O=C(Nc1ccno1)Nc1ccc(Cl)cc1Cl`: the solubility (kinetic) was 5.4 µg/mL (≈ 19.8 µM). For `Nc1ccc(C(=O)NCc2ccccc2)cc1`, the solubility (kinetic) was above 33.9 µg/mL.

For the compound `O=C(Nc1sc2c(c1C(=O)O)CCCCC2)c1cccnc1`, the kinetic solubility was above 47.5 µg/mL.

The compound `COc1ccc(C(O)Cn2ccsc2=NC(C)=O)cc1` (stereo not drawn) displayed a solubility (kinetic) of 41.3 µg/mL (≈ 141 µM). `COc1ccc(NC(=O)c2cc(-c3ccncc3)nc3ccccc23)c(OC)c1` showed a solubility (kinetic) of 4.2 µg/mL (≈ 10.9 µM). `Cc1c(C(=O)O)c(=O)n(-c2ccccc2)n1-c1ccccc1` had a solubility (kinetic) above 44.1 µg/mL. With `CC(C)C(=O)Nc1cc2c3c(c1)CCC(=O)N3CCC2`, the kinetic solubility was above 40.9 µg/mL. As to `CN(CCO)CC(O)Cn1cnc2c1c(=O)n(C)c(=O)n2C.O=C(O)c1cccnc1` (stereo not drawn), the kinetic solubility was above 65.2 µg/mL. `O=C(O)/C=C/C(=O)Nc1ccc(N2CCOCC2)nc1N1CCOCC1`: the solubility (kinetic) is above 54.4 µg/mL. For the compound `COc1cc2c(cc1OC)CC1(CCCCC1)N=C2.Cl`, the solubility (kinetic) is above 44.4 µg/mL.

`O=C(N[C@@H](Cc1ccccc1)C(=O)O)c1cccs1`: the solubility (kinetic) was above 41.3 µg/mL. With `O=C(CC1(CC(=O)N2CCOCC2)CCCC1)Nc1ccccc1` the figure was above 49.6 µg/mL; with `CN1CCN(C(=S)C(=O)Nc2ccccc2)CC1`, 38.2 µg/mL (≈ 145 µM). Compound `CCc1nnc(NC(=O)CSc2nc(C)cs2)s1` showed a kinetic solubility above 45.1 µg/mL. As to `O=C(NCc1ccccn1)C(=O)Nc1cc2c3c(c1)CC(=O)N3CCC2`, the solubility (kinetic) was above 52.6 µg/mL. For `CSc1ncccc1C(=O)OCC(=O)NC1CCCc2ccccc21` (stereo not drawn), the kinetic solubility came to 5.5 µg/mL (≈ 15.4 µM). Compound `Cc1cc(C)cc(C(=O)OCC(=O)NC2CCCC2)c1` displayed a solubility (kinetic) of 21.7 µg/mL (≈ 78.8 µM). As to `COc1cccc(NC(=O)Nc2cccc(C)n2)c1`, the solubility (kinetic) turned out to be 0.3 µg/mL (≈ 1.17 µM). This solubility kinetic is about 72-fold lower than that of the compound before. As to `CCOC(=O)c1[nH]cnc1C(=O)Nc1ccccc1`, the solubility (kinetic) is 11.4 µg/mL (≈ 44 µM). This solubility kinetic is about 38-fold higher than that of the compound before. In turn, `CCc1ccccc1NC(=O)c1ccc2c(c1)CCN2S(C)(=O)=O` registered a solubility (kinetic) of 0.8 µg/mL (≈ 2.32 µM). To `NC(=O)Cn1cc(C(=O)c2ccccc2)c2ccccc21` belongs 10.8 µg/mL (≈ 38.8 µM); to `O=C1CCN(C(=O)Cc2ccccc2[N+](=O)[O-])CC1`, above 39.3 µg/mL; to `COc1ccccc1Nc1nc(NCc2ccco2)nc(N)c1[N+](=O)[O-]`, below 0.1 µg/mL. Turning to `O=C(Nc1cccc(F)c1)Nc1ccc2c(c1)C(=O)OC2`, the kinetic solubility is below 0.3 µg/mL. With `CCCOc1ccc(Cn2c(=O)oc3ccc(C)cc32)cc1` the figure was below 0.6 µg/mL.
